Reference: ChEMBL document CHEMBL1201862, “PubChem BioAssay data set” (2004)
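Exposure lasted 48 hours, with cells grown in 96-well plates and compounds tested at five concentrations. The concentration for 50% growth inhibition is given as GI50.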 Active and inactive are the calls of the source. Cut-off read from the data, not from the text of the source: active = GI50 up to about 1.1 µM and inactive = higher.

What was measured:
Experiment in all cases: DTP human tumour cell line panel, 48 h
[1] = test system: RXF 393
[2] = test system: HCT-15
[3] = test system: UO-31
[4] = test system: SF-295
[5] = test system: Malme-3M
[6] = test system: ACHN
[7] = test system: SN12C
[8] = test system: NCI-H23
[9] = test system: MOLT-4
[10] = test system: HOP-62
[11] = test system: OVCAR-3
[12] = test system: U-251
[13] = test system: TK-10
[14] = test system: CAKI-1
[15] = test system: OVCAR-4
[16] = test system: SK-MEL-5
[17] = test system: IGROV-1
[18] = test system: A498

| Structure (SMILES) | GI50 [1] | GI50 [2] [µM] | GI50 [3] | GI50 [4] | GI50 [5] | GI50 [6] | GI50 [7] | GI50 [8] | GI50 [9] | GI50 [10] | GI50 [11] | GI50 [12] | GI50 [13] | GI50 [14] | GI50 [15] | GI50 [16] | GI50 [17] | GI50 [18] |
| --- | --- | --- | --- | --- | --- | --- | --- | --- | --- | --- | --- | --- | --- | --- | --- | --- | --- | --- |
| Cc1cc2c(CC(=O)O)n[nH]c2c(C(=O)O)c1C | > 100 µM (inactive) | > 100 | > 100 µM (inactive) | > 100 µM (inactive) | > 100 µM (inactive) | > 100 µM (inactive) | > 100 µM (inactive) | > 100 µM (inactive) | > 100 µM (inactive) | > 100 µM (inactive) | > 100 µM (inactive) | > 100 µM (inactive) | > 100 µM (inactive) |  |  |  |  |  |
| CCOc1ccc(N(CC(=O)N2CC(=O)Nc3cc(C)c(C)cc32)C(C)=O)cc1 | > 100 µM (inactive) | > 100 | 75.7 µM (inactive) | > 100 µM (inactive) | > 100 µM (inactive) | > 100 µM (inactive) | > 100 µM (inactive) | > 100 µM (inactive) | > 100 µM (inactive) | > 100 µM (inactive) | 63.8 µM (inactive) | > 100 µM (inactive) | > 100 µM (inactive) | > 100 µM (inactive) | > 100 µM (inactive) | > 100 µM (inactive) |  |  |
| Brc1ccc(C2SCc3nc4ccccc4n32)cc1 (centres undefined) | 7.45 µM (inactive) | 11.3 | 11 µM (inactive) | 11.5 µM (inactive) | 12.9 µM (inactive) | 8.2 µM (inactive) | 13.7 µM (inactive) | 2.75 µM (inactive) | 13.4 µM (inactive) | 7.57 µM (inactive) | 4.83 µM (inactive) | 12 µM (inactive) | 13.8 µM (inactive) | 14.4 µM (inactive) | 7.53 µM (inactive) | 3.72 µM (inactive) | 10.3 µM (inactive) |  |
| O=C1Sc2ccccc2C(=O)N2CSCC12 (centres undefined) | > 100 µM (inactive) |  | > 100 µM (inactive) | > 100 µM (inactive) | > 100 µM (inactive) | > 100 µM (inactive) | > 100 µM (inactive) | > 100 µM (inactive) | > 100 µM (inactive) | > 100 µM (inactive) | > 100 µM (inactive) | > 100 µM (inactive) | > 100 µM (inactive) |  |  | > 100 µM (inactive) | > 100 µM (inactive) |  |
| NCCOCn1cc(Cc2cccc(OCc3ccccc3)c2)c(=O)[nH]c1=O |  | > 100 | > 100 µM (inactive) | > 100 µM (inactive) |  | > 10 µM (inactive) | > 100 µM (inactive) | > 100 µM (inactive) | 73.8 µM (inactive) |  | > 100 µM (inactive) | > 100 µM (inactive) | > 100 µM (inactive) |  | 90.6 µM (inactive) | > 100 µM (inactive) | > 100 µM (inactive) | > 10 µM (inactive) |
| CCCCC1(C(NC(=O)c2ccccc2Cl)c2ccncc2)C(=O)N(c2ccccc2)N(c2ccccc2)C1=O (centres undefined) | 37.6 µM (inactive) | 38.5 | 33 µM (inactive) | 55.7 µM (inactive) | 61 µM (inactive) | 36.6 µM (inactive) | 94.4 µM (inactive) | 44.7 µM (inactive) | 11.9 µM (inactive) | > 100 µM (inactive) | 60 µM (inactive) | 34 µM (inactive) | 41 µM (inactive) |  |  | 18.1 µM (inactive) | > 100 µM (inactive) |  |
| CCC1CCC2CCCC(C)N12 (centres undefined) |  | > 100 | > 100 µM (inactive) | > 100 µM (inactive) | > 100 µM (inactive) | > 100 µM (inactive) | > 100 µM (inactive) | > 100 µM (inactive) | > 100 µM (inactive) | > 100 µM (inactive) | > 100 µM (inactive) | > 100 µM (inactive) | > 100 µM (inactive) | > 100 µM (inactive) | > 100 µM (inactive) |  | > 100 µM (inactive) |  |
